PubChem BioAssay AID2060892 (Molecular Pharmacology Branch, DTP, NCI, 2025)

Test system: HOP-62 complex spheroids with HUVEC/MSC, viability
Test: Anticancer human tumor HOP-62 cell line growth inhibition [RAS];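 note: spheroids exposed to agents for seven days before readout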;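 for viability, T/C: 100% = DMSO vehicle control viability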
Settings: for IC50: curve of first compound; for viability, T/C: stronger effect = lower value
Method in brief: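 Tumour cells grown as complex spheroids with HUVEC endothelial cells and mesenchymal stem cells, treated with RAS pathway inhibitor combinations. Each agent spans half-log steps from near clinical Cmax, or 10 microM where Cmax is unknown.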

[1] = second compound 0.00316 µM, first compound 0.00316 µM
[2] = second compound 0.00316 µM, first compound 0.01 µM
[3] = second compound 0.00316 µM, first compound 0.0316 µM
[4] = second compound 0.00316 µM, first compound 0.1 µM
[5] = second compound 0.00316 µM, first compound 0.316 µM
[6] = second compound 0.00316 µM, first compound 1 µM
[7] = second compound 0.01 µM, first compound 0.00316 µM
[8] = second compound 0.01 µM, first compound 0.01 µM
[9] = second compound 0.01 µM, first compound 0.0316 µM
[10] = second compound 0.01 µM, first compound 0.1 µM
[11] = second compound 0.01 µM, first compound 0.316 µM
[12] = second compound 0.01 µM, first compound 1 µM
[13] = second compound 0.0316 µM, first compound 0.00316 µM
[14] = second compound 0.0316 µM, first compound 0.01 µM
[15] = second compound 0.0316 µM, first compound 0.0316 µM
[16] = second compound 0.0316 µM, first compound 0.1 µM
[17] = second compound 0.0316 µM, first compound 0.316 µM
[18] = second compound 0.0316 µM, first compound 1 µM
[19] = second compound 0.1 µM, first compound 0.00316 µM
[20] = second compound 0.1 µM, first compound 0.01 µM
[21] = second compound 0.1 µM, first compound 0.0316 µM
[22] = second compound 0.1 µM, first compound 0.1 µM
[23] = second compound 0.1 µM, first compound 0.316 µM
[24] = second compound 0.1 µM, first compound 1 µM
[25] = second compound 0.316 µM, first compound 0.00316 µM
[26] = second compound 0.316 µM, first compound 0.01 µM
[27] = second compound 0.316 µM, first compound 0.0316 µM
[28] = second compound 0.316 µM, first compound 0.1 µM
[29] = second compound 0.316 µM, first compound 0.316 µM
[30] = second compound 0.316 µM, first compound 1 µM
[31] = second compound 1 µM, first compound 0.00316 µM
[32] = second compound 1 µM, first compound 0.01 µM
[33] = second compound 1 µM, first compound 0.0316 µM
[34] = second compound 1 µM, first compound 0.1 µM
[35] = second compound 1 µM, first compound 0.316 µM
[36] = second compound 1 µM, first compound 1 µM

Work on CC1(C)CCC(Nc2ncc(C(F)(F)F)c(-c3c[nH]c4c(P(C)(C)=O)c(C#N)ccc34)n2)CN1 (stereo unspecified) + C#Cc1c(F)ccc2cc(O)cc(-c3ncc4c(N5CC6CCC(C5)N6)nc(OCC56CCCN5CC(F)C6)nc4c3F)c12 yielded an IC50 (second compound 0.0316 µM) of 2.01 nM, an IC50 (second compound 0.1 µM) of 1.73 nM and an IC50 (second compound 0.316 µM) of 2.05 nM. It also gave an IC50 (second compound 1 µM) of 1.8 nM, an IC50 (second compound 3.16 µM) of 1.33 nM and an IC50 (second compound 10 µM) of less than 0.949 nM. For the same compound, the viability, T/C (second compound 0.0316 µM, first compound 0.000949 µM) was 76.3%, the viability, T/C (second compound 0.0316 µM, first compound 0.003 µM) was 35.9% and the viability, T/C (second compound 0.0316 µM, first compound 0.00949 µM) was 22.1%. For the same compound, the viability, T/C (second compound 0.0316 µM, first compound 0.03 µM) was 24.1%, the viability, T/C (second compound 0.0316 µM, first compound 0.0949 µM) was 27.6% and the viability, T/C (second compound 0.0316 µM, first compound 0.3 µM) was 25.8%. For the same compound, the viability, T/C (second compound 0.1 µM, first compound 0.000949 µM) was 72.1%, the viability, T/C (second compound 0.1 µM, first compound 0.003 µM) was 30.1% and the viability, T/C (second compound 0.1 µM, first compound 0.00949 µM) was 23.6%. The viability, T/C (second compound 0.1 µM, first compound 0.03 µM) was 24%, the viability, T/C (second compound 0.1 µM, first compound 0.0949 µM) was 25.8% and the viability, T/C (second compound 0.1 µM, first compound 0.3 µM) was 28.5%. For the same compound, the viability, T/C (second compound 0.316 µM, first compound 0.000949 µM) was 73.2%, the viability, T/C (second compound 0.316 µM, first compound 0.003 µM) was 38.5% and the viability, T/C (second compound 0.316 µM, first compound 0.00949 µM) was 21%. The viability, T/C (second compound 0.316 µM, first compound 0.03 µM) was 21.6%, the viability, T/C (second compound 0.316 µM, first compound 0.0949 µM) was 26% and the viability, T/C (second compound 0.316 µM, first compound 0.3 µM) was 29.3%. For the same compound, the viability, T/C (second compound 1 µM, first compound 0.000949 µM) was 75.3%, the viability, T/C (second compound 1 µM, first compound 0.003 µM) was 29.9% and the viability, T/C (second compound 1 µM, first compound 0.00949 µM) was 23.4%. It also gave a viability, T/C (second compound 1 µM, first compound 0.03 µM) of 25%, a viability, T/C (second compound 1 µM, first compound 0.0949 µM) of 26% and a viability, T/C (second compound 1 µM, first compound 0.3 µM) of 25.2%. The viability, T/C (second compound 3.16 µM, first compound 0.000949 µM) was 57.4%, the viability, T/C (second compound 3.16 µM, first compound 0.003 µM) was 32.1% and the viability, T/C (second compound 3.16 µM, first compound 0.00949 µM) was 26.4%. It also gave a viability, T/C (second compound 3.16 µM, first compound 0.03 µM) of 24.7%, a viability, T/C (second compound 3.16 µM, first compound 0.0949 µM) of 27.8% and a viability, T/C (second compound 3.16 µM, first compound 0.3 µM) of 26.4%. For the same compound, the viability, T/C (second compound 10 µM, first compound 0.000949 µM) was 47.8%, the viability, T/C (second compound 10 µM, first compound 0.003 µM) was 30.8% and the viability, T/C (second compound 10 µM, first compound 0.00949 µM) was 29.3%. For the same compound, the viability, T/C (second compound 10 µM, first compound 0.03 µM) was 28.3%, the viability, T/C (second compound 10 µM, first compound 0.0949 µM) was 31% and the viability, T/C (second compound 10 µM, first compound 0.3 µM) was 33.9%.
With C=CC(=O)Nc1cc(Nc2nccc(-c3cn(C)c4ccccc34)n2)c(OC)cc1N(C)CCN(C)C + C=CC(=O)N1CCN(c2nc(OCC3CCCN3C)nc3c(F)c(-c4nc(N)cc(C)c4C(F)(F)F)c(Cl)cc23)C(C)C1 the IC50 (second compound 0.00316 µM) was 628 nM, the IC50 (second compound 0.01 µM) was 372 nM and the IC50 (second compound 0.0316 µM) was 131 nM. It also gave an IC50 (second compound 0.1 µM) of 280 nM, an IC50 (second compound 0.316 µM) of 308 nM and an IC50 (second compound 1 µM) of 333 nM. It also gave a viability, T/C [1] of 82.4%, a viability, T/C [2] of 74.9% and a viability, T/C [3] of 72.5%. It also gave a viability, T/C [4] of 74.1%, a viability, T/C [5] of 64.1% and a viability, T/C [6] of 40.5%. For the same compound, the viability, T/C [7] was 74%, the viability, T/C [8] was 66.6% and the viability, T/C [9] was 65.7%. The viability, T/C [10] was 66.4%, the viability, T/C [11] was 52.9% and the viability, T/C [12] was 29.4%. The viability, T/C [13] was 74.9%, the viability, T/C [14] was 69.9% and the viability, T/C [15] was 52.6%. It also gave a viability, T/C [16] of 51.5%, a viability, T/C [17] of 51.3% and a viability, T/C [18] of 35.2%. It also gave a viability, T/C [19] of 65.7%, a viability, T/C [20] of 66.1% and a viability, T/C [21] of 62.7%. It also gave a viability, T/C [22] of 56.4%, a viability, T/C [23] of 50.9% and a viability, T/C [24] of 29.4%. For the same compound, the viability, T/C [25] was 59.2%, the viability, T/C [26] was 58.1% and the viability, T/C [27] was 59.2%. The viability, T/C [28] was 57.9%, the viability, T/C [29] was 48.5% and the viability, T/C [30] was 33.8%. For the same compound, the viability, T/C [31] was 63.9%, the viability, T/C [32] was 53.5% and the viability, T/C [33] was 68.9%. It also gave a viability, T/C [34] of 56.9%, a viability, T/C [35] of 49.8% and a viability, T/C [36] of 34.1%.
Compound O=C(c1ccc(F)c(F)c1Nc1ccc(I)cc1F)N1CC(O)([C@@H]2CCCCN2)C1 + C=CC(=O)N1CCN(c2nc(OCC3CCCN3C)nc3c(F)c(-c4nc(N)cc(C)c4C(F)(F)F)c(Cl)cc23)C(C)C1 has an IC50 (second compound 0.00316 µM) of 46.5 nM, an IC50 (second compound 0.01 µM) of 38.3 nM and an IC50 (second compound 0.0316 µM) of 20 nM. It also gave an IC50 (second compound 0.1 µM) of 22.7 nM, an IC50 (second compound 0.316 µM) of 14 nM and an IC50 (second compound 1 µM) of 17.6 nM. It also gave a viability, T/C [1] of 77.1%, a viability, T/C [2] of 77.8% and a viability, T/C [3] of 55.2%. It also gave a viability, T/C [4] of 36.5%, a viability, T/C [5] of 20% and a viability, T/C [6] of 19.2%. It also gave a viability, T/C [7] of 68.2%, a viability, T/C [8] of 65.5% and a viability, T/C [9] of 52.2%. It also gave a viability, T/C [10] of 35.1%, a viability, T/C [11] of 18.8% and a viability, T/C [12] of 15%. The viability, T/C [13] was 68.1%, the viability, T/C [14] was 60.1% and the viability, T/C [15] was 42.2%. It also gave a viability, T/C [16] of 30.6%, a viability, T/C [17] of 15.1% and a viability, T/C [18] of 13.3%. For the same compound, the viability, T/C [19] was 64.8%, the viability, T/C [20] was 54.5% and the viability, T/C [21] was 49.3%. It also gave a viability, T/C [22] of 27.8%, a viability, T/C [23] of 15.7% and a viability, T/C [24] of 10.7%. It also gave a viability, T/C [25] of 57%, a viability, T/C [26] of 57.2% and a viability, T/C [27] of 38.7%. For the same compound, the viability, T/C [28] was 28%, the viability, T/C [29] was 16.6% and the viability, T/C [30] was 10.5%. For the same compound, the viability, T/C [31] was 63.6%, the viability, T/C [32] was 59.4% and the viability, T/C [33] was 40.6%. For the same compound, the viability, T/C [34] was 24.3%, the viability, T/C [35] was 13.1% and the viability, T/C [36] was 9.01%.
